The source of these data is ChEMBL document CHEMBL1141701, “N-alkyl-5H-pyrido[4,3-b]indol-1-amines and derivatives as novel urotensin-II receptor antagonists” (Bioorg Med Chem Lett, 2008).

≈ marks a conversion by molar mass, not a printed value.

The target of data set [1] is T1, Urotensin-2 receptor (Homo sapiens, UniProt Q9UKP6).
T1 sequence (Q9UKP6 whole entry): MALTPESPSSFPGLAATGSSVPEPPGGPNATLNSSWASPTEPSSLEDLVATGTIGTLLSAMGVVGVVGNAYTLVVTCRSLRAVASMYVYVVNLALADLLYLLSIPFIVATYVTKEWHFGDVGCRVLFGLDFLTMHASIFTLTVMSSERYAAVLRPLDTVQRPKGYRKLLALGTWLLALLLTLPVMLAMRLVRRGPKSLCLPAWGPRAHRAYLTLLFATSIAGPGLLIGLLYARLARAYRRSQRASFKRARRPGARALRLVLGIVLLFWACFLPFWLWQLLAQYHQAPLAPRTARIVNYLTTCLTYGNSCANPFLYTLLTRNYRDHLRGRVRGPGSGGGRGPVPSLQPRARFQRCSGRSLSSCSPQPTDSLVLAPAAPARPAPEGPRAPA
The data set can be described thus: Displacement of [125I]human urotensin 2 from human recombinant urotensin 2 receptor expressed in HEK293 cells. The data set is classed as cell-based. (In general: In a radioligand displacement assay an active substance lowers the binding of a labelled ligand.)

The target of data set [2] is T2, Urotensin II receptor (Felis catus, UniProt Q533H1).
T2 sequence (Q533H1 whole entry): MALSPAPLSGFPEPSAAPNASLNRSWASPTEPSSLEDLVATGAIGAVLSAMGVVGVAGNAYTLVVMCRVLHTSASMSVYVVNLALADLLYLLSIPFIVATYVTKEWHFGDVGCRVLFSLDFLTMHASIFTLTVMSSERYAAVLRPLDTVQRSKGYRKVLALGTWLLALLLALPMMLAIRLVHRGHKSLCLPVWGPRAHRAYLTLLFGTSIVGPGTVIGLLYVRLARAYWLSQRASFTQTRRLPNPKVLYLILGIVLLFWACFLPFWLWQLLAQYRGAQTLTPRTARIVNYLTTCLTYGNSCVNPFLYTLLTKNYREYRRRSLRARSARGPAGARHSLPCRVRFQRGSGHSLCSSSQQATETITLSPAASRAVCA
Nature of the data set: Displacement of [125I]human urotensin 2 from cat urotensin 2 receptor expressed in HEK293 cells. The format is cell-based.

The target in data set [3] is T1, Urotensin-2 receptor. Nature of the data set: Antagonist activity at human urotensin 2 receptor by FLIPR assay. The data set is classed as functional. Conditions: read-out: pA2 (converted).
Data set [4] can be described thus: Selectivity for human urotensin 2 receptor over adenosine A2b receptor.
Data set [5] in a line: Selectivity for human urotensin 2 receptor over 5HT1A receptor.
Data set [6] in a line: Selectivity for human urotensin 2 receptor over muscarinic M4 receptor.
Data set [7] is described as follows: Selectivity for human urotensin 2 receptor over histamine H1 receptor.
Data set [8] is described as follows: Aqueous solubility in phosphate buffer by HPLC. The data set is classed as physicochemical.
Data set [9] has as its target Voltage-gated inwardly rectifying potassium channel KCNH2 (Homo sapiens, UniProt Q12809). The data set can be described thus: Inhibition of human ERG.
Data set [10] can be described thus: Selectivity for human urotensin 2 receptor over 5HT4A receptor.
A short description of data set [11]: Half life in rat at 0.49 mg/kg, iv or 0.97 mg/kg, po. The data set is classed as ADME, organism-based. Conditions: in vivo.
Data set [12] is filed under the species Homo sapiens. Nature of the data set: Selectivity for human urotensin 2 receptor over human ERG.
A short description of data set [13]: Selectivity for human urotensin 2 receptor over histamine H3 receptor.
Data set [14] can be described thus: Selectivity for human urotensin 2 receptor over adenosine A2a receptor.
The nature of data set [15]: Selectivity for human urotensin 2 receptor over muscarinic M1 receptor.
The nature of data set [16]: Permeability across artificial phospholipid membrane by HPLC. The data set is classed as ADME. Conditions: not told; read-out: permeability.
The nature of data set [17]: Selectivity for human urotensin 2 receptor over adenosine A1 receptor.
A short description of data set [18]: Selectivity for human urotensin 2 receptor over muscarinic M2 receptor.
Data set [19] in a line: Selectivity for human urotensin 2 receptor over muscarinic M5 receptor.
Data set [20] is described as follows: Selectivity for human urotensin 2 receptor over 5HT1D receptor.
The target in data set [21] is Cytochrome P450 2D6 (Homo sapiens, UniProt P10635). The data set can be described thus: Inhibition of CYP2D6. The data set is classed as ADME.
Chain of Cytochrome P450 2D6 (P10635 whole entry): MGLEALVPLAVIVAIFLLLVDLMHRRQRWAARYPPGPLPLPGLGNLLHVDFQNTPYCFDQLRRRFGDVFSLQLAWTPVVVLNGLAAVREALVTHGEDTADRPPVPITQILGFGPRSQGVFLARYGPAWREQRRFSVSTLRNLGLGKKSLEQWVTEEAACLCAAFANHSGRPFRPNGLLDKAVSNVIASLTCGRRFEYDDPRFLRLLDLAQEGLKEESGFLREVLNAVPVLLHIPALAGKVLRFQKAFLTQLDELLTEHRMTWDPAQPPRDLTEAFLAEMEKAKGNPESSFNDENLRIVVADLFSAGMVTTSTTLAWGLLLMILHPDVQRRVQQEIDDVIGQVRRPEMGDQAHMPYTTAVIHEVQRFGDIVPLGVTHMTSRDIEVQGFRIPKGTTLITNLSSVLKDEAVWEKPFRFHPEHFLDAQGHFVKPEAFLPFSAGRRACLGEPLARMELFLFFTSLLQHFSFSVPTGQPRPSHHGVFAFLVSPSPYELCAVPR
Data set [22] can be described thus: Selectivity for human urotensin 2 receptor over adrenergic Alpha-1B receptor.
Data set [23] is described as follows: Selectivity for human urotensin 2 receptor over CXCR2.
The nature of data set [24]: Selectivity for human urotensin 2 receptor over 5HT6 receptor.
The nature of data set [25]: Selectivity for human urotensin 2 receptor over dopamine D2 receptor.
Data set [26] in a line: Selectivity for human urotensin 2 receptor over 5HT3 receptor.
Data set [27] is described as follows: Selectivity for human urotensin 2 receptor over 5HT2C receptor.
Data set [28] in a line: Selectivity for human urotensin 2 receptor over 5HT1B receptor.
Data set [29] is described as follows: Selectivity for human urotensin 2 receptor over 5HT2A receptor.
A short description of data set [30]: Selectivity for human urotensin 2 receptor over 5HT7 receptor.
Data set [31] is described as follows: Selectivity for human urotensin 2 receptor over muscarinic M3 receptor.
Data set [32] can be described thus: Oral bioavailability in rat at 0.97 mg/kg. The format is ADME, organism-based. Conditions: in vivo.
In data set [33] the target is Cytochrome P450 3A4 (Homo sapiens, UniProt P08684). The data set can be described thus: Inhibition of CYP3A4. The format is ADME.
Chain of Cytochrome P450 3A4 (P08684 whole entry): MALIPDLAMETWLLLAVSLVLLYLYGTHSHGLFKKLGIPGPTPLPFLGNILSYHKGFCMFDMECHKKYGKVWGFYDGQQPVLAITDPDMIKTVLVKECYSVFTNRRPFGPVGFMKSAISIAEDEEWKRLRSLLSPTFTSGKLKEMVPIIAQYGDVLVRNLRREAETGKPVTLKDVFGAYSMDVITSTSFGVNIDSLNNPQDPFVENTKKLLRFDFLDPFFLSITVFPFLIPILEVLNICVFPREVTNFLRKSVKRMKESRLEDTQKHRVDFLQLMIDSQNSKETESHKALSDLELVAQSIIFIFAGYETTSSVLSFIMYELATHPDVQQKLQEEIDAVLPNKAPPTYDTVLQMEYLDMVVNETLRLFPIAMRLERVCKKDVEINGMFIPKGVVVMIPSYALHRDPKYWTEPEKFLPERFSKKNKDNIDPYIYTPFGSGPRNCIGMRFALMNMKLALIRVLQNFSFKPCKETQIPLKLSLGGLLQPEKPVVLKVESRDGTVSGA
A short description of data set [34]: Selectivity for human urotensin 2 receptor over adrenergic beta2 receptor.
Data set [35] has as its target T1, Urotensin-2 receptor. Nature of the data set: Antagonist activity at human recombinant urotensin 2 receptor expressed in HEK293 cells assessed as inhibition of […] calcium mobilization by FLIPR assay. The data set is classed as functional, cell-based. In general terms: Calcium flux is commonly read through the fluorescence of an indicator in the cells.

A short description of data set [36]: Selectivity for human urotensin 2 receptor over adrenergic alpha1A receptor.
Data set [37] can be described thus: Selectivity for human urotensin 2 receptor over dopamine D3 receptor.
Data set [38] is described as follows: Blood clearance in rat at 0.49 mg/kg, iv or 0.97 mg/kg, po. The data set is classed as ADME, organism-based.

Chain of Voltage-gated inwardly rectifying potassium channel KCNH2 (Q12809 whole entry): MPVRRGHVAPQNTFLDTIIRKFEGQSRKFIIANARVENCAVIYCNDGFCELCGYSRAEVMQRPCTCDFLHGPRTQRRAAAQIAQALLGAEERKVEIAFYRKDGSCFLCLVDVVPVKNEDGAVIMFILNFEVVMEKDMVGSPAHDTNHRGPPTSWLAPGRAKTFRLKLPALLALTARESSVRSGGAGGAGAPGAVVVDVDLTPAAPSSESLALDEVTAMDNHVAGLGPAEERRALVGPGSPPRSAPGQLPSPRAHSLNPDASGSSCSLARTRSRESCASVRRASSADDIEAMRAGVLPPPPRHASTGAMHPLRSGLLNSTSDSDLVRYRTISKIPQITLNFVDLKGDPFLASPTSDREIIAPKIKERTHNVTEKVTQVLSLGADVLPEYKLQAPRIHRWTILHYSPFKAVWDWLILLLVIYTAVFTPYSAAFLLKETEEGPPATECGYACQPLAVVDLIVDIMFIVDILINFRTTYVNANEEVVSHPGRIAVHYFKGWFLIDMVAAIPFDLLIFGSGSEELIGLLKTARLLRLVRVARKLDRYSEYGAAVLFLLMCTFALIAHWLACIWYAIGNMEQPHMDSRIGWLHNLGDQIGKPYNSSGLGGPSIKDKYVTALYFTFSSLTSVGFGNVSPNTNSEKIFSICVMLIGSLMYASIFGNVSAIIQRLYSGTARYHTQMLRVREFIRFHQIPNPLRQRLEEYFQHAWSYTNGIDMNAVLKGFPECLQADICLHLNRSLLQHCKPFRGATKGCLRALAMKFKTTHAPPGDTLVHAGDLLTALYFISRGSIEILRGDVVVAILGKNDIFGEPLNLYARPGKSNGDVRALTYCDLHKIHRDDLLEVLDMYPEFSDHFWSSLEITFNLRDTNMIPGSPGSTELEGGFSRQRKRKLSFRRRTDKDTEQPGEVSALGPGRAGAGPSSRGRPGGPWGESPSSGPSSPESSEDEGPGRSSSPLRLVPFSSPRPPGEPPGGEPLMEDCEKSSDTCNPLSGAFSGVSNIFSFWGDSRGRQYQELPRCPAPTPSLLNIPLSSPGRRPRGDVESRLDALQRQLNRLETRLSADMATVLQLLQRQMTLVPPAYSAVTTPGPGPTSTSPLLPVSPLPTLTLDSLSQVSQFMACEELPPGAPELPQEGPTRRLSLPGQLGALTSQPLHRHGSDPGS

A word on the Ki: it is the dissociation constant of the complex between target and ligand, obtained from inhibition or displacement. In the case of `c1ccc(CNc2nccc3[nH]c4ccccc4c23)cc1`, the values for the Ki in [1] and in [2] were 12.6 nM and 1000 nM, respectively. Further, in data set [3], the Kb is 20 nM.
As to `CCCCNc1ccnc2[nH]c3ccc(C)cc3c12`, the inhibition constant Ki in [1] was 63.1 nM.
On to `COCCN(C)c1nccc2[nH]c3ccccc3c12`, for which, in data set [1], the inhibition constant Ki is more than 7940 nM.
`c1ccc2c(c1)[nH]c1ccnc(NCC3CCCCC3)c12`: the Ki in data set [1] was 10 nM.
Regarding `CCNc1nccc2[nH]c3ccccc3c12`, the Ki in data set [1] was 1580 nM.
Regarding `c1ccc2c(c1)[nH]c1ccnc(NCC3CC3)c12`, the Ki in [1] is 6.31 nM; in data set [2] it was 2510 nM. The Kb in data set [3] was 126 nM.
For the molecule `CN(C)CCNc1nccc2[nH]c3ccccc3c12`, the Ki in data set [1] was more than 7940 nM.
In the case of `c1ccc2c(c1)[nH]c1ccnc(NCC3CCCO3)c12` (centres undefined), the inhibitory constant (Ki) in [1] was 79.4 nM.
Still for that read-out and setting: in the case of `CCCCNc1ccnc2[nH]c3c(OC)cccc3c12` it was 31.6 nM; in that of `CCCCNc1nccc2c1c1ccccc1n2C(C)C`, 63.1 nM.
As to `CCCCCNc1nccc2[nH]c3ccccc3c12`, the inhibition constant Ki in data set [1] was 3.98 nM; in data set [2], 398 nM.
In the case of `c1ccc(Nc2nccc3[nH]c4ccccc4c23)cc1`, in data set [1], the inhibition constant (Ki) was more than 7940 nM.
Take `CCCC(C)Nc1nccc2[nH]c3ccccc3c12` (centres undefined): the Ki in data set [1] was 794 nM.
For the molecule `CCOCCNc1nccc2[nH]c3ccccc3c12`, the Ki in [1] is 12.6 nM.
With `c1ccc2c(c1)[nH]c1ccnc(NCCN3CCOCC3)c12`, the Ki in [1] was more than 7940 nM.
The same measure, in the same setting: in the case of `c1ccc2c(c1)[nH]c1ccnc(NC3CC3)c12` it was 2510 nM.
Broadly, the solubility is the concentration that dissolves in the medium under given conditions. By IC50 is commonly meant the midpoint of a concentration-inhibition curve. The term half-life denotes the time in which the quantity being followed falls by half. The term bioavailability denotes the share of a dose that reaches the circulation, judged against a reference dose that is usually intravenous. A higher bioavailability goes with much systemic uptake. Consider `CCCCNc1nccc2[nH]c3ccccc3c12`, for which the Selectivity ratio is 100 in [4]; 100 in data set [5]; 100 in data set [6]; 100 in [7]; 100 in [10]; 400 in data set [12]. Besides, the Selectivity ratio in [13], in data set [14], in data set [15], in data set [17], in data set [18] and in [19] was 100 each time. The Selectivity ratio in [20], in data set [22], in [23], in [24], in data set [25] and in [26] was 100 each time. The Selectivity ratio in data set [27], in data set [28], in data set [29], in data set [30], in data set [31] and in [34] was 100 in each case. Also, the Selectivity ratio in data set [36] and in data set [37] was 100 in each case. Moreover, the solubility in data set [8] turned out to be 195 µM (≈ 46.7 µg/mL). Moreover, the half-maximal inhibitory concentration (IC50) in [9] is 1580 nM; in [21], 7.94 nM; in [33] it was 100 nM; in data set [35], 501 nM. Moreover, the half-life in data set [11] was 1.3 h. In addition, the inhibition constant (Ki) is 3.98 nM in data set [1] and 631 nM in data set [2]. For the same molecule, the Papp in [16] is 47 ×10⁻⁶ cm/s. In data set [32], the bioavailability was determined as 11%. In data set [3], the Kb is 100 nM. Further, in [38], the clearance turned out to be 110 mL/min/kg.
For the molecule `c1ccc2c(c1)[nH]c1nccc(NCC3CC3)c12`, in data set [1], the Ki is 100 nM.
Regarding `CC(C)CCNc1nccc2[nH]c3ccccc3c12`, the inhibition constant Ki in [1] is 12.6 nM; in data set [2], 1580 nM.
Take `CCCCNc1nccc2c1c1ccccc1n2Cc1ccccc1`: the Ki in [1] is 3980 nM.
As to `CCCCCCNc1nccc2[nH]c3ccccc3c12`, the results for the Ki in data set [1] and in [2] were 6.31 nM and 200 nM, respectively.
For `CCCNc1nccc2[nH]c3ccccc3c12`, the Ki in [1] is 25.1 nM.
For `c1ccc2c(c1)[nH]c1ccnc(NC3CCCCC3)c12`, in data set [1], the Ki is more than 7940 nM.
With `CC(=O)NCCNc1nccc2[nH]c3ccccc3c12`, the Ki in data set [1] is more than 7940 nM.
On the same count and under the same terms, in the case of `CCCCNc1ccnc2[nH]c3ccccc3c12` it was 79.4 nM; in that of `COCCNc1ccnc2[nH]c3ccccc3c12`, 316 nM; in that of `CCCCNc1ccnc2[nH]c3ccc(Cl)cc3c12`, 50.1 nM.
`NC(=O)CCNc1nccc2[nH]c3ccccc3c12`: the inhibition constant (Ki) in data set [1] is more than 7940 nM.
As to `CCCCN(CCCC)c1nccc2[nH]c3ccccc3c12`, the inhibitory constant (Ki) in data set [1] is 794 nM.
In the case of `c1ccc2c(c1)[nH]c1nccc(NCC3CCCCC3)c12`, the inhibition constant Ki in [1] is 794 nM.
Consider `c1csc(CNc2nccc3[nH]c4ccccc4c23)c1`, for which the Ki is 25.1 nM in [1] and 3160 nM in data set [2]. Further, in data set [3], the Kb was 158 nM.
On to `c1ccc(CCNc2nccc3[nH]c4ccccc4c23)cc1`, for which the Ki in data set [1] is 100 nM.
As for `CCC(C)CNc1nccc2[nH]c3ccccc3c12` (centres undefined), the Ki in data set [1] is 10 nM; in data set [2], 1260 nM. In [3], the Kb is 100 nM.
In the case of `CCCCNc1nccc2c1c1ccccc1n2C`, the inhibition constant (Ki) in data set [1] was 50.1 nM; in data set [2], 1000 nM.
Turning to `COCCNc1nccc2[nH]c3ccccc3c12`, the Ki in data set [1] was 20 nM.
